{"source": "PubChem BioAssay (NCI)", "test_in_all_cases": "DTP human tumour cell line panel, 48 h", "key": {"SNB-75 CNS": {"test_system": "SNB-75 CNS"}, "OVCAR-5 ovarian": {"test_system": "OVCAR-5 ovarian"}, "SN12C renal": {"test_system": "SN12C renal"}, "HCT-116 colon": {"test_system": "HCT-116 colon"}, "A498 renal": {"test_system": "A498 renal"}, "MALME-3M melanoma": {"test_system": "MALME-3M melanoma"}, "CAKI-1 renal": {"test_system": "CAKI-1 renal"}, "RPMI-8226 leukemia": {"test_system": "RPMI-8226 leukemia"}, "MDA-MB-435": {"test_system": "MDA-MB-435"}, "TK-10 renal": {"test_system": "TK-10 renal"}, "UACC-257 melanoma": {"test_system": "UACC-257 melanoma"}, "NCI/ADR-RES ovarian": {"test_system": "NCI/ADR-RES ovarian"}, "CCRF-CEM leukemia": {"test_system": "CCRF-CEM leukemia"}, "T-47D breast": {"test_system": "T-47D breast"}, "MOLT-4 leukemia": {"test_system": "MOLT-4 leukemia"}, "MDA-MB-231 breast": {"test_system": "MDA-MB-231 breast"}, "BT-549 breast": {"test_system": "BT-549 breast"}, "SK-MEL-2 melanoma": {"test_system": "SK-MEL-2 melanoma"}, "KM12 colon": {"test_system": "KM12 colon"}, "UACC-62 melanoma": {"test_system": "UACC-62 melanoma"}, "NCI-H23 lung": {"test_system": "NCI-H23 lung"}, "COLO 205 colon": {"test_system": "COLO 205 colon"}, "SNB-19 CNS": {"test_system": "SNB-19 CNS"}, "SW-620 colon": {"test_system": "SW-620 colon"}, "PC-3 prostate": {"test_system": "PC-3 prostate"}, "HS 578T breast": {"test_system": "HS 578T breast"}, "HOP-62 NSCLC": {"test_system": "HOP-62 NSCLC"}, "SF-295 CNS": {"test_system": "SF-295 CNS"}}, "note": "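All cell lines were grown in 96-well plates and treated with compound for 48 hours. At the GI50, growth is halved. TGI denotes the concentration required for complete inhibition of growth.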"}
{"smiles": "C#CCOc1ccc(-c2csc(NC(=O)C=C)n2)cc1NS(=O)(=O)c1cccc2c(N(C)C)cccc12", "values": [{"measurement": "GI50", "setting": "SNB-75 CNS", "value": 862, "unit": "nM"}, {"measurement": "TGI", "setting": "SNB-75 CNS", "value": 4600, "unit": "nM"}, {"measurement": "GI50", "setting": "OVCAR-5 ovarian", "value": 1470, "unit": "nM"}, {"measurement": "TGI", "setting": "OVCAR-5 ovarian", "value": 6180, "unit": "nM"}, {"measurement": "GI50", "setting": "SN12C renal", "value": 1300, "unit": "nM"}, {"measurement": "TGI", "setting": "SN12C renal", "value": 5020, "unit": "nM"}, {"measurement": "GI50", "setting": "HCT-116 colon", "value": 800, "unit": "nM"}, {"measurement": "TGI", "setting": "HCT-116 colon", "value": 1570, "unit": "nM"}, {"measurement": "GI50", "setting": "A498 renal", "value": 1710, "unit": "nM"}, {"measurement": "TGI", "setting": "A498 renal", "value": 6830, "unit": "nM"}, {"measurement": "GI50", "setting": "MALME-3M melanoma", "value": 1070, "unit": "nM"}, {"measurement": "TGI", "setting": "MALME-3M melanoma", "value": 3460, "unit": "nM"}, {"measurement": "GI50", "setting": "CAKI-1 renal", "value": 1380, "unit": "nM"}, {"measurement": "TGI", "setting": "CAKI-1 renal", "value": 5810, "unit": "nM"}, {"measurement": "GI50", "setting": "RPMI-8226 leukemia", "value": 947, "unit": "nM"}, {"measurement": "TGI", "setting": "RPMI-8226 leukemia", "value": 2570, "unit": "nM"}, {"measurement": "GI50", "setting": "MDA-MB-435", "value": 1310, "unit": "nM"}, {"measurement": "TGI", "setting": "MDA-MB-435", "value": 3840, "unit": "nM"}, {"measurement": "GI50", "setting": "TK-10 renal", "value": 934, "unit": "nM"}, {"measurement": "TGI", "setting": "TK-10 renal", "value": 2040, "unit": "nM"}, {"measurement": "GI50", "setting": "UACC-257 melanoma", "value": 2460, "unit": "nM"}, {"measurement": "TGI", "setting": "UACC-257 melanoma", "value": 10000, "unit": "nM"}, {"measurement": "GI50", "setting": "NCI/ADR-RES ovarian", "value": 1450, "unit": "nM"}, {"measurement": "TGI", "setting": "NCI/ADR-RES ovarian", "value": 50000, "unit": "nM"}, {"measurement": "GI50", "setting": "CCRF-CEM leukemia", "value": 312, "unit": "nM"}, {"measurement": "TGI", "setting": "CCRF-CEM leukemia", "value": 2650, "unit": "nM"}, {"measurement": "GI50", "setting": "T-47D breast", "value": 1490, "unit": "nM"}, {"measurement": "TGI", "setting": "T-47D breast", "value": 6950, "unit": "nM"}, {"measurement": "GI50", "setting": "MOLT-4 leukemia", "value": 1180, "unit": "nM"}, {"measurement": "TGI", "setting": "MOLT-4 leukemia", "value": 3830, "unit": "nM"}, {"measurement": "GI50", "setting": "MDA-MB-231 breast", "value": 1790, "unit": "nM"}, {"measurement": "TGI", "setting": "MDA-MB-231 breast", "value": 9420, "unit": "nM"}, {"measurement": "GI50", "setting": "BT-549 breast", "value": 810, "unit": "nM"}, {"measurement": "TGI", "setting": "BT-549 breast", "value": 1520, "unit": "nM"}, {"measurement": "GI50", "setting": "SK-MEL-2 melanoma", "value": 973, "unit": "nM"}, {"measurement": "TGI", "setting": "SK-MEL-2 melanoma", "value": 2190, "unit": "nM"}, {"measurement": "GI50", "setting": "KM12 colon", "value": 2210, "unit": "nM"}, {"measurement": "TGI", "setting": "KM12 colon", "value": 8270, "unit": "nM"}, {"measurement": "GI50", "setting": "UACC-62 melanoma", "value": 1180, "unit": "nM"}, {"measurement": "TGI", "setting": "UACC-62 melanoma", "value": 6050, "unit": "nM"}, {"measurement": "GI50", "setting": "NCI-H23 lung", "value": 1790, "unit": "nM"}, {"measurement": "TGI", "setting": "NCI-H23 lung", "value": 7670, "unit": "nM"}, {"measurement": "GI50", "setting": "COLO 205 colon", "value": 2190, "unit": "nM"}, {"measurement": "TGI", "setting": "COLO 205 colon", "value": 7970, "unit": "nM"}, {"measurement": "GI50", "setting": "SNB-19 CNS", "value": 2250, "unit": "nM"}, {"measurement": "TGI", "setting": "SNB-19 CNS", "value": 12100, "unit": "nM"}, {"measurement": "GI50", "setting": "SW-620 colon", "value": 848, "unit": "nM"}, {"measurement": "TGI", "setting": "SW-620 colon", "value": 1750, "unit": "nM"}, {"measurement": "GI50", "setting": "PC-3 prostate", "value": 1900, "unit": "nM"}, {"measurement": "TGI", "setting": "PC-3 prostate", "value": 8550, "unit": "nM"}, {"measurement": "GI50", "setting": "HS 578T breast", "value": 1680, "unit": "nM"}, {"measurement": "TGI", "setting": "HS 578T breast", "value": 22300, "unit": "nM"}, {"measurement": "GI50", "setting": "HOP-62 NSCLC", "value": 1640, "unit": "nM"}, {"measurement": "TGI", "setting": "HOP-62 NSCLC", "value": 8040, "unit": "nM"}, {"measurement": "GI50", "setting": "SF-295 CNS", "value": 3810, "unit": "nM"}, {"measurement": "TGI", "setting": "SF-295 CNS", "value": 11500, "unit": "nM"}]}
